In patent US20230181905A1, “Systems, Devices, and Methods for Enhancing the Neuroprotective Effects of Non-Invasive Gamma Stimulation with Pharmacological Agents” (Massachusetts Institute of Technology, priority 2021, published 2023):

How the values were obtained:
synaptophysin = test: Synaptophysin western blot and immunohistochemistry; type: in vivo, mouse; details: 5×FAD mice
Protocol: Loss of synapses and neurons are closely associated with higher neuroinflammatory response and cognitive decline in AD. Therefore, synaptic markers in the visual cortex of Plx3397 and/or GENUS treated mice were evaluated. […] Thus, whether these treatments had any effect on neuronal density by immunohistochemical analysis of neuronal marker NeuN was examined (Synaptic Systems, #266 004) positive cells (FIG. 4A).
The visual cortex was dissected out and snap-frozen in liquid nitrogen and stored in an −80° C. freezer until processing. Samples were homogenized using a glass homogenizer with RIPA (50 mM Tris HCl pH 8.0, 150 mM NaCl, 1% NP-40, 0.5% sodium deoxycholate, 0.1% SDS) buffer which contains protease and phosphatase inhibitor. The concentration of proteins in samples were quantified using a Bio-Rad protein assay. Equal concentrations of proteins were prepared and added with SDS—sample buffer. […] of protein was loaded onto 4-20% polyacrylamide gels and electrophoresed. Protein was transferred from acrylamide gels to nitrocellulose membranes for 12 min (Semi-dry system, Bio-Rad). Membranes were blocked using BSA (5% w/v) diluted in TBS containing 0.1% Tween-20 (TBSTw), then incubated in primary antibodies overnight at 4° C. The following day, they were washed three times with TBSTw and incubated with horseradish peroxidase-linked secondary antibodies (GE Healthcare) at room temperature for 60 min. After three further washes with TBSTw, membranes were treated with chemiluminescence substrates and the blots were visualized (Chem doc, Bio-Rad). Signal intensities were quantified using ImageJ 1.46q and normalized to values of loading control.
These observations led to examination of the effect of Plx3397 administration on neuronal integrity. […]
(§1) The brain was perfused with PBS and fixed with 4% PFA. […] Signal intensities were quantified using ImageJ 1.46q and normalized to values of loading control.

vGLUT1 = vGLUT1 western blot and puncta, overall and within WFA; type: in vivo, mouse; details: 5×FAD mice
Description: It was reasoned that the increased WFA coverage and enhanced phase locking of neurons after these treatments are related. […] WFA has been predominantly observed around interneurons, specifically PV interneurons. vGLUT1 (Synaptic Systems, #1135 302), an excitatory synaptic marker, was labeled with WFA. It was observed that the overall vGLUT1 signal was higher after Plx3397+GENUS treatment in mice (ANOVA, F (3,22)=3,686, P=0.0273) (FIGS. 18A, 18B). WFA was 3D rendered and surface created and examined (vGLUT1) within WFA, and observed increased vGLUT1 within WFA (Nested ANOVA, F (3,29)=3.377, P=0.0493) (FIGS. 18A, 18C).
vGAT and vGLUT1 puncta: LSM 710, with a 40× objective, was used to acquire the images. The entire […] thickness of the slices was acquired in Z stacks—80 per image (step of 0.5 μm). The spot-count inbuilt function in Imarisx64 9.3 was used to count cells automatically.
These observations point to synaptic connectivity, PNN extracellular architecture, and myelination as biological processes that GENUS impacts to improve the outcomes in Plx3397 administered 5×FAD mice. To further validate this, additional biochemical analyses were performed. […]
as §1

With `FC(F)(F)c1ccc(CNc2ccc(Cc3c[nH]c4ncc(Cl)cc34)cn2)cn1` [Plx3397, Pexidartinib] the synaptophysin (synaptophysin; hippocampus, chronic Plx3397 vs control) was “increased”, the synaptophysin signals (synaptophysin; visual cortex, IHC, Plx3397 50 days) was 6524128709±177336289 au and the “synaptophysin level (western blot)” value (synaptophysin; visual cortex, control 100±12.03) was 185.3±23.83. For the same compound, the “vGLUT1 level (western blot)” value (vGLUT1; visual cortex, control 100±7.30) was 130.1±10.05 and the “vGLUT1 synaptic puncta in the WFA of PV interneurons” value (vGLUT1; controls 313.4±13.20) was 332.7±13.14 % of no treatment control.
